The subject of one data set is MDA-MB-231. Description: MTT cytotoxic activity against breast MDA-MB-231 cancer cell line. It counts as cell-based. The conditions noted are these: Homo sapiens, MDA-MB-231; MTT assay, 24 h treatment. The source says: All the synthesised compounds were screened for their cytotoxic activity against breast MDA-MB-231 cancer cell line and compounds 6 and 12 against breast MCF-10A cell line taking CA-4 as a positive control for the analysis. The in vitro cytotoxicity results of the prepared compounds were systematised in Table 1. […] Structurally, the prepared molecules contain three structural variations; including rotatable hydrazide derivatives, the core exchange with imidazolone ring, and the ring expansion with triazinone motif. […] It is noticed that directly attached benzene ring to triazinone scaffold (compound 6) or bioisosteric group (thiazolyl ester) as in compound 12, may contribute to the astonishing cytotoxicity against breast MDA-MB-231 cancer cells.
To measure the cytotoxic activity of the synthesised derivatives 2a–13e in breast cancer (MDA-MB-231) cell line. MTT assay method was applied to assess cell viability assay. All experimental steps were conducted as reported earlier.
Part I: Biological Studies
4.3. Biological evaluation
4.3.1. Cytotoxic activity evaluation
The cytotoxic actvity of the synthesized derivatives 2a-13e was measured in MDA-MB-231 breast cancer cell line and derivatives 6 and 12 in MCF-10A […].
Cell viability assay was assessed using MTT assay method. Cells at density of 1 x 104 were seeded in a 96-well plate at 37 °C for 24 h under 5% CO2. After incubation, the cells were treated with different concentrations of the test schiff bases 2a-13e and incubated for 24 h, then 20 µl of MTT solution at 5 mg/mL was applied and incubated for 4 h at 37 °C.
Dimethyl sulphoxide (DMSO) in volume of 100 µl was added to each well to dissolve the purple formazan that had formed. The color intensity of the formazan product, which represents the growth condition of the cells, is quantified by using an ELISA plate reader (EXL 800, USA) at 570 nm absorbance. The experimental conditions were carried out with at least three replicates, and the experiments were repeated at least three times. […]

From PMC9518609, “Design and synthesis of new trimethoxylphenyl-linked combretastatin analogues loaded on diamond nanoparticles as a panel for ameliorated solubility and antiproliferative activity” (Journal of Enzyme Inhibition and Medicinal Chemistry, 2022) come the findings set out here.

In general, IC50 refers to the midpoint of a concentration-inhibition curve. Low readings indicate greater potency, high ones weaker potency. In general, melting point refers to the temperature, or range, at which the solid turns liquid.

On to `COc1cc(C=C2N=C(c3cc(OC)c(OC)c(OC)c3)N(c3nc(-c4ccc(Cl)cc4)cs3)NC2=O)cc(OC)c1OC` [Compound 13b, 2-(4-(4-Chlorophenyl)thiazol-2-yl)-5-(3,4,5-trimethoxybenzylidene)-3-(3,4,5-trimethoxyphenyl)-1,2-dihydro-1,2,4-triazin-6(5H)-one], for which the melting point was in the range of 212 to 214 °C. Moreover, 20.7 ± 1.58 µM corresponded to half-maximal inhibition in the data set with MDA-MB-231 (IC50).
The corresponding values for `COc1cc(C=C(NC(=O)c2cc(OC)c(OC)c(OC)c2)C(=O)NNc2nc(-c3ccc(Br)cc3)cs2)cc(OC)c1OC` [Compound 11c, N-(3-(2-(4-(4-bromophenyl)thiazol-2-yl)hydrazinyl)-3-oxo-1-(3,4,5-trimethoxyphenyl)prop-1-en-2-yl)-3,4,5-trimethoxybenzamide] are 212 to 214 °C and 25.7 ± 1.9 µM.
The compound `COc1cc(C=C2N=C(c3cc(OC)c(OC)c(OC)c3)N(c3nc(-c4ccc(Br)cc4)cs3)NC2=O)cc(OC)c1OC` [Compound 13c, 2-(4-(4-Bromophenyl)thiazol-2-yl)-5-(3,4,5-trimethoxybenzylidene)-3-(3,4,5-trimethoxyphenyl)-1,2-dihydro-1,2,4-triazin-6(5H)-one] yielded a melting point of 212 to 214 °C. Further, the IC50 in the data set with MDA-MB-231 came out at 10.1 ± 0.54 µM.
In the data set with MDA-MB-231, `COc1cc(C=C(NC(=O)c2cc(OC)c(OC)c(OC)c2)C(=O)NNC(N)=S)cc(OC)c1OC` [Compound 8, N-(3-(2-carbamothioylhydrazinyl)-3-oxo-1-(3,4,5-trimethoxyphenyl)prop-1-en-2-yl)-3,4,5-trimethoxybenzamide] returned an IC50 of 31.5 ± 1.82 µM.
With `COc1cc(C=C(NC(=O)c2cc(OC)c(OC)c(OC)c2)C(=O)NNC(=S)Nc2ccccc2)cc(OC)c1OC` [Compound 3, 3,4,5-trimethoxy-N-(3-oxo-3-(2-(phenylcarbamothioyl)hydrazinyl)-1-(3,4,5-trimethoxyphenyl)prop-1-en-2-yl)benzamide], the melting point lay within 212 to 214 °C. Besides, 14.9 ± 0.8 µM corresponded to half-maximal inhibition in the data set on MDA-MB-231 (IC50).
The corresponding values for `COc1cc(C(=O)N/C=C(\C(=O)NNc2nc(-c3ccccc3)cs2)c2cc(OC)c(OC)c(OC)c2)cc(OC)c1OC` [Compound 11a, 3,4,5-Trimethoxy-N-(3-oxo-3-(2-(4-arylthiazol-2-yl)hydrazinyl)-1-(3,4,5-trimethoxyphenyl)prop-1-en-2-yl)benzamide] are 212 to 214 °C and 6.21 ± 0.47 µM.
The corresponding values for `COc1cc(C=C(NC(=O)c2cc(OC)c(OC)c(OC)c2)C(=O)NNC(=O)c2ccc(Br)cc2)cc(OC)c1OC` [Compound 2b, N-(3-(2-(4-bromobenzoyl)hydrazinyl)-3-oxo-1-(3,4,5-trimethoxyphenyl)prop-1-en-2-yl)-3,4,5-trimethoxybenzamide] are 236 to 238 °C and 39.7 ± 1.8 µM.
The corresponding values for `COc1cccc(-c2csc(NNC(=O)C(=Cc3cc(OC)c(OC)c(OC)c3)NC(=O)c3cc(OC)c(OC)c(OC)c3)n2)c1` [Compound 11e, 3,4,5-Trimethoxy-N-(3-(2-(4-(3-methoxyphenyl)thiazol-2-yl)hydrazinyl)-3-oxo-1–(3,4,5-trimethoxyphenyl)prop-1-en-2-yl)benzamide] are 212 to 214 °C and over 100 µM.
Consider `COc1cc(C=C(NC(=O)c2cc(OC)c(OC)c(OC)c2)C(=O)NNc2nc(-c3cccc([N+](=O)[O-])c3)cs2)cc(OC)c1OC` [Compound 11d, 3,4,5-Trimethoxy-N-(3-(2-(4-(3-nitrophenyl)thiazol-2-yl)hydrazinyl)-3-oxo-1–(3,4,5-trimethoxyphenyl)prop-1-en-2-yl)benzamide], for which the melting point fell in the range of 212 to 214 °C. Besides, the IC50 with MDA-MB-231 was determined as 12.2 ± 0.65 µM.
As for `COc1cc(C=C2N=C(c3cc(OC)c(OC)c(OC)c3)N(C(N)=S)NC2=O)cc(OC)c1OC` [Compound 9, 6-oxo-5-(3,4,5-trimethoxybenzylidene)-3-(3,4,5-trimethoxyphenyl)-5,6-dihydro-1,2,4-triazine-2(1H)-carbothioamide], the IC50 in the data set on MDA-MB-231 was 4.14 ± 0.22 µM.
`COc1cc(C=C2N=C(c3cc(OC)c(OC)c(OC)c3)N(c3nc(-c4cccc([N+](=O)[O-])c4)cs3)NC2=O)cc(OC)c1OC` [Compound 13d, 2-(4-(3-Nitrophenyl)thiazol-2-yl)-5-(3,4,5-trimethoxybenzylidene)-3-(3,4,5-trimethoxyphenyl)-1,2-dihydro-1,2,4-triazin-6(5H)-one] registered a melting point of 212 to 214 °C. The IC50 in the data set on MDA-MB-231 turned out to be 3.16 ± 0.17 µM.
The corresponding values for `COc1cc(C=C(NC(=O)c2cc(OC)c(OC)c(OC)c2)C(=O)NNc2nc(-c3ccc(Cl)cc3)cs2)cc(OC)c1OC` [Compound 11b, N-(3-(2-(4-(4-chlorophenyl)thiazol-2-yl)hydrazinyl)-3-oxo-1-(3,4,5-trimethoxyphenyl)prop-1-en-2-yl)-3,4,5-trimethoxybenzamide] are 212 to 214 °C and 8.59 ± 2.38 µM.
`COc1cc(C=C2N=C(c3cc(OC)c(OC)c(OC)c3)N(C(=O)c3cccc(OC(C)=O)c3)NC2=O)cc(OC)c1OC` (hydrate or solvate) [Compound 7, 3-(6-oxo-5–(3,4,5-trimethoxybenzylidene)-3-(3,4,5-trimethoxyphenyl)-1,2,5,6-tetrahydro-1,2,4-triazine-2-carbonyl)phenyl acetate]: the melting point is 199 to 201 °C.
Regarding `COc1cccc(-c2csc(N3NC(=O)C(=Cc4cc(OC)c(OC)c(OC)c4)N=C3c3cc(OC)c(OC)c(OC)c3)n2)c1` [Compound 13e, 2-(4-(3-Methoxyphenyl)thiazol-2-yl)-5-(3,4,5-trimethoxybenzylidene)-3-(3,4,5-trimethoxyphenyl)-1,2-dihydro-1,2,4-triazin-6(5H)-one], the melting point is 212 to 214 °C. Half-maximal inhibition with MDA-MB-231 (IC50) was put at 33.5 ± 2.47 µM.
`COc1cc(C=C2N=C(c3cc(OC)c(OC)c(OC)c3)N(C(=O)c3cccc(OC(C)=O)c3)NC2=O)cc(OC)c1OC` [Compound 7, 3-(6-oxo-5–(3,4,5-trimethoxybenzylidene)-3-(3,4,5-trimethoxyphenyl)-1,2,5,6-tetrahydro-1,2,4-triazine-2-carbonyl)phenyl acetate] registered an IC50 in the data set with MDA-MB-231 of 13.7 ± 1.04 µM.
Take `COc1cc(C=C2N=C(c3cc(OC)c(OC)c(OC)c3)NC2=O)cc(OC)c1OC` [Compound 4, 4-(3,4,5-trimethoxybenzylidene)-2-(3,4,5-trimethoxyphenyl)-1H-imidazol-5(4H)-one]: the melting point fell in the range of 212 to 214 °C. Moreover, the IC50 in the data set on MDA-MB-231 came to 36.8 ± 2.81 µM.
With `COc1cc(C=C2N=C(c3cc(OC)c(OC)c(OC)c3)N(c3nc(-c4ccccc4)cs3)NC2=O)cc(OC)c1OC` [Compound 13a, 2-(4-Phenylthiazol-2-yl)-5-(3,4,5-trimethoxybenzylidene)-3–(3,4,5-trimethoxyphenyl)-1,2-dihydro-1,2,4-triazin-6(5H)-one], the melting point lay in the range of 212 to 214 °C. For the same compound, the IC50 with MDA-MB-231 stood at 19.6 ± 1.42 µM.
In the same order, the values of `COc1cc(C=C(NC(=O)c2cc(OC)c(OC)c(OC)c2)C(=O)NNC(=O)c2ccncc2)cc(OC)c1OC` [Compound 2c, N-(3-(2-isonicotinoylhydrazinyl)-3-oxo-1-(3,4,5-trimethoxyphenyl)prop-1-en-2-yl)-3,4,5-trimethoxybenzamide] are 227 to 229 °C and 13.2 ± 0.71 µM.
Regarding `COc1cc(C=C2N=C(c3cc(OC)c(OC)c(OC)c3)N(C(N)=S)NC2=O)cc(OC)c1OC` (hydrate or solvate) [Compound 9, 6-oxo-5-(3,4,5-trimethoxybenzylidene)-3-(3,4,5-trimethoxyphenyl)-5,6-dihydro-1,2,4-triazine-2(1H)-carbothioamide], the melting point was in the range of 239 to 241 °C.
The compound `COc1cc(C=C(NC(=O)c2cc(OC)c(OC)c(OC)c2)C(=O)NNC(=O)c2cccc(O)c2)cc(OC)c1OC` [Compound 2a, N-(3-(2-(3-hydroxybenzoyl)hydrazinyl)-3-oxo-1-(3,4,5-trimethoxyphenyl)prop-1-en-2-yl)-3,4,5-trimethoxybenzamide] yielded a melting point of 241 to 243 °C. The compound further returned an IC50 in the data set on MDA-MB-231 of 21.7 ± 1.17 µM.
In the same order, the values of `COc1cc(C=C2N=C(c3cc(OC)c(OC)c(OC)c3)N(N)C2=O)cc(OC)c1OC` [Compound 5, 1-amino-4-(3,4,5-trimethoxybenzylidene)-2-(3,4,5-trimethoxyphenyl)-1H-imidazol-5(4H)-one] are 205 to 207 °C and 57.1 ± 3.23 µM.
`CCOC(=O)Cc1csc(NNC(=O)C(=Cc2cc(OC)c(OC)c(OC)c2)NC(=O)c2cc(OC)c(OC)c(OC)c2)n1` [Compound 10, ethyl 2-(2-(2-(2-(3,4,5-trimethoxybenzamido)-3-(3,4,5-trimethoxyphenyl)acryloyl)hydrazinyl)thiazol-4-yl)acetate]: the melting point lay within 210 to 212 °C. This compound also showed an IC50 in the data set with MDA-MB-231 of 4.8 ± 0.21 µM.
